The test system of test [1] is U87MG pLVX-IDH2 R140Q-neo cells. As to the kind of experiment: U87MG pLVX-IDH2 R140Q-neo cell based assay, 2-HG in media by LC-MS at 48 hours. The settings on record: Homo sapiens, U-87 MG. The essentials: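 U87MG cells stably expressing IDH2 R140Q were seeded overnight, then exposed to compound at 0.2% final DMSO at 37 °C, 5% CO2. 2-HG in the medium was quantified by LC-MS at 48 h. Growth inhibition was read by CellTiter-Glo luminescence at 72 h.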

For test [2], the target named is T1, IDH2 R140Q (Homo sapiens, UniProt P48735, R140Q).
T1 sequence (P48735 40-452 R140Q): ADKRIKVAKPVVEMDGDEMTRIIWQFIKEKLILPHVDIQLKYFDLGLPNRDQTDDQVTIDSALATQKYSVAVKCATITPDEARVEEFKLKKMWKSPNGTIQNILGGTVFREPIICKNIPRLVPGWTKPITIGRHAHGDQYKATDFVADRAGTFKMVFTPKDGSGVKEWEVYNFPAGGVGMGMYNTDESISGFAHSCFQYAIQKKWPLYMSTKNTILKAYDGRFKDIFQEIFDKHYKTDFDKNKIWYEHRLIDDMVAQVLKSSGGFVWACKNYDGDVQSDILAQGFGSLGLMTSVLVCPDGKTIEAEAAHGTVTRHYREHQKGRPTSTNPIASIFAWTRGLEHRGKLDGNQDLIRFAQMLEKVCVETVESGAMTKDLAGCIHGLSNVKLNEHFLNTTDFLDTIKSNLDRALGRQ
As to the kind of experiment: IDH2 R140Q enzymatic assay (cofactor depletion, similar format). In kind it is biochemical. The note with it: read-out: Enz R140Q.

Test [3] deals with T2, IDH2 R172K (Homo sapiens, UniProt P48735, R172K).
T2 sequence (P48735 40-452 R172K): T1 sequence (P48735 40-452 R140Q) with Q101R, R133K
As to the kind of experiment: IDH2 R172K enzymatic assay (NADPH cofactor depletion, diaphorase/resazurin readout). The class given is biochemical. The settings on record: read-out: Enz R172K. The essentials:
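Compound was preincubated with IDH2 R172K for 1 h at room temperature, then the reaction was started with substrate mix containing 50 μM NADPH and 6.3 mM α-KG. After another 1 h at room temperature, stop mix with diaphorase and resazurin consumed the remaining NADPH, and resorufin fluorescence was read.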
Background: Alamar Blue is a resazurin reagent that responds to reducing activity.

The text below walks through data of patent publication US9512107B2, “Therapeutically active compositions and their methods of use” (Agios Pharmaceuticals, Inc., priority 2012, dated 2016).

Substitutions are numbered along the chain they refer to.

Consider `CC(C)(O)CNc1nc(Nc2cc(F)cc(F)c2)nc(-c2cccc(N)n2)n1` [Compound 691, 1-(4-(6-aminopyridin-2-yl)-6-(3,5-difluorophenylamino)-1,3,5-triazin-2-ylamino)-2-methylpropan-2-ol], for which the IC50 in test [1] is under 100 nM; in test [2] it was 100 to 1000 nM; in test [3], 100 to 1000 nM.
Regarding `CC1(Nc2nc(Nc3ccnc(C(F)(F)F)c3)nc(-c3cccc(N)n3)n2)CC1` [Compound 692, 6-(6-aminopyridin-2-yl)-N2-(1-methylcyclopropyl)-N4-(2-(trifluoromethyl)pyridin-4-yl)-1,3,5-triazine-2,4-diamine], the figures for the IC50 in test [1], in test [2] and in test [3] were under 100 nM, 100 to 1000 nM and under 100 nM, respectively.
Turning to `CC1(Nc2nc(Nc3cc(F)cc(F)c3)nc(-c3cccc(N)n3)n2)CC1` [Compound 693, 6-(6-aminopyridin-2-yl)-N2-(3,5-difluorophenyl)-N4-(1-methylcyclopropyl)-1,3,5-triazine-2,4-diamine], the IC50 in test [1] was under 100 nM; in test [2], 100 to 1000 nM; in test [3] it was under 100 nM.
As for `CC(Nc1nc(Nc2ccnc(C(F)(F)F)c2)nc(-c2cccc(N)n2)n1)C(F)(F)F` (stereo not drawn) [Compound 694, 6-(6-aminopyridin-2-yl)-N2-(2-(trifluoromethyl)pyridin-4-yl)-N4-(1,1,1-trifluoropropan-2-yl)-1,3,5-triazine-2,4-diamine], the figures for the IC50 in test [1], in test [2] and in test [3] were under 100 nM, 100 to 1000 nM and under 100 nM, respectively.
As for `CC(C)(C)Nc1nc(Nc2ccnc(C(F)(F)F)c2)nc(-c2cccc(N)n2)n1` [Compound 695, 6-(6-aminopyridin-2-yl)-N2-tert-butyl-N4-(2-(trifluoromethyl)pyridin-4-yl)-1,3,5-triazine-2,4-diamine], the results for the IC50 in test [1], in test [2] and in test [3] were under 100 nM, 100 to 1000 nM and under 100 nM, respectively.
In the case of `CC(C)Nc1nc(Nc2ccnc(C(C)(F)F)c2)nc(-c2cccc(N)n2)n1` [Compound 696, 6-(6-aminopyridin-2-yl)-N2-(2-(1,1-difluoroethyl)pyridin-4-yl)-N4-isopropyl-1,3,5-triazine-2,4-diamine], the IC50 was under 100 nM in test [1], 100 to 1000 nM in test [2] and 100 to 1000 nM in test [3].
As for `CC(=O)Nc1cccc(-c2nc(Nc3ccnc(C(F)(F)F)c3)nc(NC(C)C)n2)n1` [Compound 697, N-(6-(4-(isopropylamino)-6-(2-(trifluoromethyl)pyridin-4-ylamino)-1,3,5-triazin-2-yl)pyridin-2-yl)acetamide], the values for the IC50 in test [1], in test [2] and in test [3] were 100 to 1000 nM, 100 to 1000 nM and 1000 to 10000 nM, respectively.
In the case of `CC(C)(C)Nc1nc(Nc2cc(F)cc(F)c2)nc(-c2cccc(N)n2)n1` [Compound 698, 6-(6-aminopyridin-2-yl)-N2-(tert-butyl)-N4-(3,5-difluorophenyl)-1,3,5-triazine-2,4-diamine], the IC50 was under 100 nM in test [1], 100 to 1000 nM in test [2] and under 100 nM in test [3].
Consider `Nc1cccc(-c2nc(NCC3CC3)nc(Nc3cc(F)cc(F)c3)n2)n1` [Compound 699, 6-(6-aminopyridin-2-yl)-N2-(cyclopropylmethyl)-N4-(3,5-difluorophenyl)-1,3,5-triazine-2,4-diamine], for which the IC50 in test [1] was under 100 nM; in test [2], 100 to 1000 nM; in test [3] it was under 100 nM.
